{"source": "ChEMBL document CHEMBL6153028", "about": "“Understanding the synergistic sensitization of natural products and antibiotics: An effective strategy to combat MRSA” (2025)", "type_in_all_cases": "functional", "key": {"Staphylococcus aureus [1]": {"test_system": "Staphylococcus aureus", "assay": "Synergistic antibacterial activity against […] Staphylococcus aureus ATCC 29213 assessed as fractional inhibitory concentration index incubated for 24 hrs in presence of ciprofloxacin by checkerboard assay"}, "Staphylococcus aureus [2]": {"test_system": "Staphylococcus aureus", "assay": "Synergistic antibacterial activity against […] Staphylococcus aureus ATCC 29213 assessed as fractional inhibitory concentration index incubated for 24 hrs in presence of amoxicillin by checkerboard assay"}, "Staphylococcus aureus [3]": {"test_system": "Staphylococcus aureus", "assay": "Synergistic antibacterial activity against […] Staphylococcus aureus ATCC 29213 assessed as fractional inhibitory concentration index incubated for 24 hrs in presence of pencillin by checkerboard assay"}, "Staphylococcus aureus [4]": {"test_system": "Staphylococcus aureus", "assay": "Synergistic antibacterial activity against methicillin resistant Staphylococcus aureus assessed as fractional inhibitory concentration index in presence of minocycline by checkerboard assay"}, "Staphylococcus aureus [5]": {"test_system": "Staphylococcus aureus", "assay": "Antibacterial activity against methicillin-resistant Staphylococcus aureus assessed as reduction in microbial growth by CLSI based broth microdilution method"}, "Staphylococcus aureus [6]": {"test_system": "Staphylococcus aureus", "assay": "Synergistic antibacterial activity against methicillin resistant Staphylococcus aureus clinical isolate 003 assessed as fractional inhibitory concentration in presence of norfloxacin"}, "Staphylococcus aureus [7]": {"test_system": "Staphylococcus aureus", "assay": "Synergistic antibacterial activity against methicillin resistant Staphylococcus aureus assessed as fractional inhibitory concentration index in presence of erythromycin incubated for 24 hrs by checkerboard assay"}, "Staphylococcus aureus [8]": {"test_system": "Staphylococcus aureus", "assay": "Synergistic antibacterial activity against methicillin resistant Staphylococcus aureus assessed as fractional inhibitory concentration index in presence of ciprofloxacin"}, "Staphylococcus aureus [9]": {"test_system": "Staphylococcus aureus", "assay": "Synergistic antibacterial activity against methicillin resistant Staphylococcus aureus assessed as fractional inhibitory concentration index in presence of norfloxacin", "conditions": "time 24 hrs"}, "Staphylococcus aureus [10]": {"test_system": "Staphylococcus aureus", "assay": "Synergistic antibacterial activity against methicillin resistant Staphylococcus aureus assessed as fractional inhibitory concentration index in presence of oxacillin incubated for 24 hrs by checkerboard assay"}, "Staphylococcus aureus [11]": {"test_system": "Staphylococcus aureus", "assay": "Synergistic antibacterial activity against methicillin resistant Staphylococcus aureus assessed as fractional inhibitory concentration index in presence of gentamicin"}, "Staphylococcus aureus [12]": {"test_system": "Staphylococcus aureus", "assay": "Synergistic antibacterial activity against methicillin-resistant Staphylococcus aureus assessed as fractional inhibitory concentration index incubated for 24 hrs in presence of cefazolin by checkerboard assay"}, "Staphylococcus aureus [13]": {"test_system": "Staphylococcus aureus", "assay": "Synergistic antibacterial activity against methicillin-resistant Staphylococcus aureus assessed as fractional inhibitory concentration index incubated for 24 hrs in presence of Nafcillin by checkerboard assay"}, "Staphylococcus aureus [14]": {"test_system": "Staphylococcus aureus", "assay": "Synergistic antimicrobial activity against methicillin resistant Staphylococcus aureus assessed as fractional inhibitory concentration index incubated for 24 hrs in presence of Oxacillin by checkerboard assay"}, "Staphylococcus aureus [15]": {"test_system": "Staphylococcus aureus", "assay": "Synergistic antibacterial activity against methicillin resistant Staphylococcus aureus assessed as fractional inhibitory concentration index in presence of ampicillin"}, "Staphylococcus aureus [16]": {"test_system": "Staphylococcus aureus", "assay": "Synergistic antibacterial activity against methicillin resistant Staphylococcus aureus assessed as fractional inhibitory concentration index in presence of ceftriaxone"}, "Staphylococcus aureus [17]": {"test_system": "Staphylococcus aureus", "assay": "Synergistic antibacterial activity against methicillin resistant Staphylococcus aureus assessed as fractional inhibitory concentration index in presence of penicillin incubated for 24 hrs by checkerboard assay"}, "Staphylococcus aureus [18]": {"test_system": "Staphylococcus aureus", "assay": "Synergistic antibacterial activity against methicillin resistant Staphylococcus aureus assessed as fractional inhibitory concentration index in presence of ampicillin incubated for 24 hrs by checkerboard assay"}, "Staphylococcus aureus [19]": {"test_system": "Staphylococcus aureus", "assay": "Synergistic antimicrobial activity against methicillin-resistant Staphylococcus aureus assessed as fractional inhibitory concentration index in presence of amoxicillin"}, "Staphylococcus aureus [20]": {"test_system": "Staphylococcus aureus", "assay": "Synergistic antibacterial activity against methicillin-resistant Staphylococcus aureus assessed as fractional inhibitory concentration index in presence of cefoxitin"}, "Staphylococcus aureus [21]": {"test_system": "Staphylococcus aureus", "assay": "Synergistic antibacterial activity against methicillin resistant Staphylococcus aureus assessed as fractional inhibitory concentration index in presence of ampicillin by checkerboard assay"}, "Staphylococcus aureus [22]": {"test_system": "Staphylococcus aureus", "assay": "Synergistic antibacterial activity against methicillin resistant Staphylococcus aureus assessed as fractional inhibitory concentration index in presence of cephradine by checkerboard assay"}, "Staphylococcus aureus [23]": {"test_system": "Staphylococcus aureus", "assay": "Synergistic antimicrobial activity against methicillin resistant Staphylococcus aureus assessed as fractional inhibitory concentration index incubated for 24 hrs in presence of daptomycin by checkerboard assay"}, "Staphylococcus aureus [24]": {"test_system": "Staphylococcus aureus", "assay": "Synergistic antimicrobial activity against methicillin resistant Staphylococcus aureus assessed as fractional inhibitory concentration index incubated for 24 hrs in presence of linezolid by checkerboard assay"}, "Staphylococcus aureus [25]": {"test_system": "Staphylococcus aureus", "assay": "Synergistic antimicrobial activity against methicillin resistant Staphylococcus aureus assessed as fractional inhibitory concentration index incubated for 24 hrs in presence of oxytetracycline by checkerboard assay"}, "Staphylococcus aureus [26]": {"test_system": "Staphylococcus aureus", "assay": "Synergistic antibacterial activity against methicillin resistant Staphylococcus aureus assessed as fractional inhibitory concentration index in presence of erythromycin by checkerboard assay"}, "Staphylococcus aureus [27]": {"test_system": "Staphylococcus aureus", "assay": "Synergistic antibacterial activity against methicillin resistant Staphylococcus aureus assessed as fractional inhibitory concentration index in presence of tetracycline"}, "Staphylococcus aureus [28]": {"test_system": "Staphylococcus aureus", "assay": "Synergistic antibacterial activity against methicillin resistant Staphylococcus aureus assessed as fractional inhibitory concentration index in presence of levofloxacin"}, "Staphylococcus aureus [29]": {"test_system": "Staphylococcus aureus", "assay": "Synergistic antibacterial activity against methicillin resistant Staphylococcus aureus assessed as fractional inhibitory concentration index in presence of ceftazidime"}, "Staphylococcus aureus [30]": {"test_system": "Staphylococcus aureus", "assay": "Antibacterial activity against methicillin-resistant Staphylococcus aureus ATCC 33592 assessed as reduction in bacterial growth measured for 24 hrs by CLSI protocol based two-fold serial dilution method"}, "Staphylococcus aureus [31]": {"test_system": "Staphylococcus aureus", "assay": "Synergistic antibacterial activity against methicillin resistant Staphylococcus aureus assessed as fractional inhibitory concentration index in presence of penicillin by checkerboard assay"}, "Staphylococcus aureus [32]": {"test_system": "Staphylococcus aureus", "assay": "Synergistic antibacterial activity against methicillin resistant Staphylococcus aureus assessed as fractional inhibitory concentration index in presence of streptomycin incubated for 24 hrs by checkerboard assay"}}, "data": [{"smiles": "O=c1cc(-c2ccccc2)oc2cc(O)c(O)c(O)c12", "note": "[BAICALEIN]", "values": [{"measurement": "fractional inhibitory concentration index (FICI)", "setting": "Staphylococcus aureus [1]", "value": "<0.5"}, {"measurement": "fractional inhibitory concentration index (FICI)", "setting": "Staphylococcus aureus [2]", "value": 0.14}, {"measurement": "fractional inhibitory concentration index (FICI)", "setting": "Staphylococcus aureus [3]", "value": 0.14}]}, {"smiles": "O=c1c(O)c(-c2ccc(O)c(O)c2)oc2cc(O)cc(O)c12", "note": "[QUERCETIN]", "values": [{"measurement": "fractional inhibitory concentration index (FICI)", "setting": "Staphylococcus aureus [4]", "value": "<=0.5"}]}, {"smiles": "C=CC(C)(C)c1cc(-c2coc3cc(O)cc(O)c3c2=O)c(CC=C(C)C)c(O)c1O", "values": [{"measurement": "MIC", "setting": "Staphylococcus aureus [5]", "value": 12.5, "unit": "µg/mL"}]}, {"smiles": "CC(C)=CCC/C(C)=C\\C=O", "values": [{"measurement": "fractional inhibitory concentration index (FICI)", "setting": "Staphylococcus aureus [6]", "value": "<0.5"}, {"measurement": "fractional inhibitory concentration index (FICI)", "setting": "Staphylococcus aureus [7]", "value": "<0.5"}]}, {"smiles": "CC(C)=CCc1c(O)cc(O)c2c1O[C@H](c1ccc(O)cc1)CC2=O", "values": [{"measurement": "fractional inhibitory concentration index (FICI)", "setting": "Staphylococcus aureus [8]", "value": 0.5}, {"measurement": "fractional inhibitory concentration index (FICI)", "setting": "Staphylococcus aureus [9]", "value": 0.5}, {"measurement": "fractional inhibitory concentration index (FICI)", "setting": "Staphylococcus aureus [10]", "value": 0.31}, {"measurement": "fractional inhibitory concentration index (FICI)", "setting": "Staphylococcus aureus [11]", "value": 0.25}]}, {"smiles": "Cc1cc(O)c2c(=O)c3c(O)cc(O)c4c5c(O)cc(O)c6c(=O)c7c(O)cc(C)c8c1c2c(c34)c(c78)c65", "note": "[HYPERICIN]", "values": [{"measurement": "fractional inhibitory concentration index (FICI)", "setting": "Staphylococcus aureus [12]", "value": 0.19}, {"measurement": "fractional inhibitory concentration index (FICI)", "setting": "Staphylococcus aureus [13]", "value": 0.19}, {"measurement": "fractional inhibitory concentration index (FICI)", "setting": "Staphylococcus aureus [14]", "value": 0.1}]}, {"smiles": "O=c1cc(-c2ccc(O)cc2)oc2cc(O)cc(O)c12", "note": "[APIGENIN]", "values": [{"measurement": "fractional inhibitory concentration index (FICI)", "setting": "Staphylococcus aureus [15]", "value": 0.18}, {"measurement": "fractional inhibitory concentration index (FICI)", "setting": "Staphylococcus aureus [16]", "value": 0.18}]}, {"smiles": "O=C(/C=C/c1ccc(O)cc1)c1ccc(O)cc1O", "note": "[ISOLIQUIRITIGENIN]", "values": [{"measurement": "fractional inhibitory concentration index (FICI)", "setting": "Staphylococcus aureus [17]", "value": 0.375}, {"measurement": "fractional inhibitory concentration index (FICI)", "setting": "Staphylococcus aureus [10]", "value": 0.312}, {"measurement": "fractional inhibitory concentration index (FICI)", "setting": "Staphylococcus aureus [18]", "value": 0.375}]}, {"smiles": "CC1(C)CCC2=C(O1)c1ccccc1C(=O)C2=O", "note": "[LAPACHONE]", "values": [{"measurement": "fractional inhibitory concentration index (FICI)", "setting": "Staphylococcus aureus [19]", "value": 0.07}, {"measurement": "fractional inhibitory concentration index (FICI)", "setting": "Staphylococcus aureus [20]", "value": 0.25}]}, {"smiles": "O=c1cc(-c2ccc(O)c(O)c2)oc2cc(O)cc(O)c12", "note": "[LUTEOLIN]", "values": [{"measurement": "fractional inhibitory concentration index (FICI)", "setting": "Staphylococcus aureus [21]", "value": 0.125}, {"measurement": "fractional inhibitory concentration index (FICI)", "setting": "Staphylococcus aureus [22]", "value": 0.44}]}, {"smiles": "CC[C@@H]1CC[C@@]2(C)C(C)=CCC[C@@H]2[C@@]1(C)CCC1=CC(=O)O[C@@H]1O", "values": [{"measurement": "fractional inhibitory concentration index (FICI)", "setting": "Staphylococcus aureus [23]", "value": 0.32}, {"measurement": "fractional inhibitory concentration index (FICI)", "setting": "Staphylococcus aureus [24]", "value": 0.34}, {"measurement": "fractional inhibitory concentration index (FICI)", "setting": "Staphylococcus aureus [25]", "value": 0.321}, {"measurement": "fractional inhibitory concentration index (FICI)", "setting": "Staphylococcus aureus [14]", "value": 0.223}]}, {"smiles": "COc1ccc(-c2cc(=O)c3c(O)cc(O)cc3o2)cc1O", "note": "[DIOSMETIN]", "values": [{"measurement": "fractional inhibitory concentration index (FICI)", "setting": "Staphylococcus aureus [26]", "value": 0.28}]}, {"smiles": "COc1cc2oc(-c3ccc(O)cc3O)c(CC=C(C)C)c(=O)c2c(O)c1/C=C/C(C)C", "note": "[ARTOCARPIN]", "values": [{"measurement": "fractional inhibitory concentration index (FICI)", "setting": "Staphylococcus aureus [9]", "value": 0.15}, {"measurement": "fractional inhibitory concentration index (FICI)", "setting": "Staphylococcus aureus [15]", "value": 0.37}, {"measurement": "fractional inhibitory concentration index (FICI)", "setting": "Staphylococcus aureus [27]", "value": 0.24}]}, {"smiles": "C/C(=C\\C(O)=C\\O)[C@@H]1Oc2cc(O[C@@H]3O[C@@H](C)[C@H](O)[C@@H](O)[C@H]3O)cc(O)c2C(=O)[C@H]1O", "values": [{"measurement": "fractional inhibitory concentration index (FICI)", "setting": "Staphylococcus aureus [28]", "value": 0.25}, {"measurement": "fractional inhibitory concentration index (FICI)", "setting": "Staphylococcus aureus [29]", "value": 0.187}]}, {"smiles": "Oc1cc(O)c2c(c1)O[C@H](c1ccc(O)c(O)c1)[C@@H](O)C2", "note": "[CIANIDANOL]", "values": [{"measurement": "MIC", "setting": "Staphylococcus aureus [30]", "value": "> 1020", "unit": "µg/mL"}]}, {"smiles": "O=C1C[C@@H](c2ccc(O)cc2)Oc2cc(O)ccc21", "note": "[LIQUIRTIGENIN]", "values": [{"measurement": "fractional inhibitory concentration index (FICI)", "setting": "Staphylococcus aureus [31]", "value": 0.375}, {"measurement": "fractional inhibitory concentration index (FICI)", "setting": "Staphylococcus aureus [10]", "value": 0.372}, {"measurement": "fractional inhibitory concentration index (FICI)", "setting": "Staphylococcus aureus [18]", "value": 0.375}]}, {"smiles": "CC(C)=CCc1cc([C@@H]2CC(=O)c3ccc(O)c(CC=C(C)C)c3O2)ccc1O", "note": "[GLABROL]", "values": [{"measurement": "fractional inhibitory concentration index (FICI)", "setting": "Staphylococcus aureus [32]", "value": 0.188}]}]}
